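Protocol summary: plate cells (96-well), add compound at 5 concentrations, incubate 48 h, interpolate endpoints linearly. TGI: total growth inhibition.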
Key:
Assay in all cases: DTP human tumour cell line panel, 48 h
[1] = tested on: SF-268 CNS
[2] = tested on: MOLT-4 leukemia
[3] = tested on: A549 NSCLC
[4] = tested on: MALME-3M melanoma
[5] = tested on: SNB-19 CNS
[6] = tested on: OVCAR-4 ovarian
[7] = tested on: LOX IMVI melanoma
[8] = tested on: DU-145 prostate
[9] = tested on: SK-MEL-28 melanoma
[10] = tested on: UO-31 renal
[11] = tested on: OVCAR-5 ovarian
[12] = tested on: SK-OV-3 ovarian
[13] = tested on: HCC-2998 colon
[14] = tested on: MDA-MB-435
[15] = tested on: RPMI-8226 leukemia
[16] = tested on: BT-549 breast
[17] = tested on: HOP-62 NSCLC
[18] = tested on: K-562 leukemia
[19] = tested on: SK-MEL-5 melanoma
[20] = tested on: HL-60(TB) leukemia
[21] = tested on: NCI-H460 lung
[22] = tested on: T-47D breast
[23] = tested on: EKVX NSCLC
[24] = tested on: CCRF-CEM leukemia
[25] = tested on: OVCAR-3 ovarian
[26] = tested on: MDA-N
[27] = tested on: OVCAR-8 ovarian
[28] = tested on: UACC-62 melanoma
[29] = tested on: SN12C renal
[30] = tested on: SW-620 colon
[31] = tested on: HOP-92 NSCLC
[32] = tested on: HCT-15 colon
[33] = tested on: UACC-257 melanoma
[34] = tested on: SNB-75 CNS
[35] = tested on: 786-0 renal
[36] = tested on: IGROV1 ovarian
[37] = tested on: HCT-116 colon
[38] = tested on: NCI/ADR-RES ovarian
[39] = tested on: NCI-H23 lung
[40] = tested on: HS 578T breast
[41] = tested on: CAKI-1 renal
[42] = tested on: ACHN renal
[43] = tested on: NCI-H226 lung
[44] = tested on: MDA-MB-231 breast
[45] = tested on: M14 melanoma
[46] = tested on: MCF7 breast
[47] = tested on: U251 CNS
[48] = tested on: COLO 205 colon
[49] = tested on: HT29 colon
[50] = tested on: KM12 colon
[51] = tested on: SR leukemia
[52] = tested on: NCI-H522 lung
[53] = tested on: PC-3 prostate
[54] = tested on: SF-539 CNS
[55] = tested on: TK-10 renal
[56] = tested on: A498 renal
[57] = tested on: RXF 393 renal
[58] = tested on: SF-295 CNS
[59] = tested on: SK-MEL-2 melanoma
[60] = tested on: DMS 114 small cell lung
[61] = tested on: M19-MEL melanoma
[62] = tested on: KM20L2 colon
[63] = tested on: DMS 273 small cell lung
[64] = tested on: SNB-78 CNS
[65] = tested on: LXFL 529 NSCLC
[66] = tested on: DLD-1 colon

Measured: TGI

c1csc(-c2csc(-c3ccsc3)c2)c1
> 71.4 µM: [46]
98.6 µM: [54]
not listed: [60] | [61] | [62] | [63] | [64] | [65] | [66]
> 100 µM: all other assays above

COC(=O)/C=C/c1cc(OC)c2oc(-c3ccc(OC)c(OC)c3)c(C(=O)OC)c2c1
not listed: [17] | [34] | [37] | [43] | [52] | [54] | [57] | [60] | [61] | [62] | [63] | [64] | [65] | [66]
> 100 µM: all other assays above

COc1ccc2c(-c3ccc(OCCN(C)C)cc3)c(Oc3ccc(Cl)cc3)c(=O)oc2c1
10.5 µM: [48]
27.6 µM: [34]
5.06 µM: [51]
6.12 µM: [46]
3.48 µM: [4]
> 30.8 µM: [54]
4.95 µM: [18]
19.1 µM: [59]
14.5 µM: [47]
12.1 µM: [52]
3.19 µM: [19]
31 µM: [41]
5.42 µM: [58]
37.6 µM: [16]
> 46.8 µM: [30]
8.49 µM: [37]
> 62.5 µM: [38]
> 46.7 µM: [49]
29.3 µM: [12]
15.5 µM: [32]
33.6 µM: [5]
12.4 µM: [57]
> 55.7 µM: [43]
14.1 µM: [36]
3.75 µM: [33]
> 95.7 µM: [6]
32.7 µM: [8]
4.3 µM: [7]
29.4 µM: [56]
11.9 µM: [10]
26.2 µM: [23]
> 42.4 µM: [21]
3.57 µM: [9]
19.7 µM: [53]
4.39 µM: [26]
> 53.3 µM: [29]
25.1 µM: [50]
26.4 µM: [55]
8.66 µM: [14]
7.52 µM: [28]
9.63 µM: [13]
18.7 µM: [3]
32.5 µM: [31]
> 100 µM: [17] | [22]
32.9 µM: [1]
20.9 µM: [42]
23.1 µM: [24]
3.23 µM: [45]
> 54.6 µM: [40]
36.8 µM: [11]
14.8 µM: [15]
> 54.2 µM: [39]
> 46.9 µM: [27]
33.5 µM: [44]
6.32 µM: [35]
6.09 µM: [2]
21 µM: [25]

COC(=O)/C(=C\c1ccco1)P(=O)(OC)OC
71 µM: [7]
81.6 µM: [25]
94.2 µM: [24]
31.8 µM: [11]
5.52 µM: [52]
65 µM: [41]
51.4 µM: [58]
52.7 µM: [17]
91.9 µM: [31]
65.9 µM: [54]
83.4 µM: [59]
33.7 µM: [6]
59 µM: [4]
69.7 µM: [49]
not listed: [10] | [20] | [60] | [61] | [62] | [63] | [64] | [65] | [66]
> 100 µM: all other assays above

CCCCCn1c(=O)c2c(=O)[nH][nH]c2c2ccccc21
not listed: [5] | [23] | [45] | [60] | [61] | [62] | [63] | [64] | [65] | [66]
> 100 µM: all other assays above

Nc1ccc(C(=O)NN2C(=O)C(Cl)C2c2cccc(O)c2)cc1 (centres undefined)
28.4 µM: [66]
28.9 µM: [24]
31.9 µM: [9]
29.5 µM: [35]
8.76 µM: [20]
25.3 µM: [32]
34.6 µM: [48]
32 µM: [28]
25.2 µM: [47]
35.2 µM: [45] | [49] | [58]
34 µM: [6]
41.1 µM: [2]
37.9 µM: [42]
41.9 µM: [11] | [41]
31.7 µM: [19]
19.9 µM: [60]
46.6 µM: [23]
34.3 µM: [12]
56.1 µM: [34]
36.6 µM: [30]
31.6 µM: [54]
3.29 µM: [52]
41.7 µM: [15] | [33]
29.7 µM: [21]
58.1 µM: [56]
35 µM: [10]
28.6 µM: [36]
29.9 µM: [25]
39.3 µM: [3]
23.3 µM: [63]
30.5 µM: [5] | [55] | [59]
36.7 µM: [4]
35.4 µM: [31]
40.2 µM: [64]
31.8 µM: [62]
32.3 µM: [29]
29.8 µM: [13]
38.3 µM: [61]
41.4 µM: [43]
25.8 µM: [37]
54.4 µM: [27]
17 µM: [1]
44.5 µM: [18]
24.3 µM: [65]
22.5 µM: [50]
16.2 µM: [7]
33.2 µM: [39]
30.7 µM: [17]

COc1ccc(/C(=N/Nc2nc3ccccc3[nH]2)C(=O)O)cc1
not listed: [57] | [60] | [61] | [62] | [63] | [64] | [65] | [66]
> 100 µM: all other assays above
